Results reported in patent US9963444B2, “N-acylethanolamine hydrolyzing acid amidase (NAAA) inhibitors and their use thereof” (Northeastern University, priority 2014, dated 2018).

Target: hNAAA (Homo sapiens (Human), UniProt Q02083)
Assay: Fluorescence-based NAAA inhibition assay with fluorogenic substrate PAMCA;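 further: compound preincubated 15 min at room temperature with hNAAA, then PAMCA added at 5 µM, reacted 120 min at 37 °C, AMC release read by fluorescence (ex 360, em 460 nm)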
Settings: not given

Chain of hNAAA (Q02083 29-125): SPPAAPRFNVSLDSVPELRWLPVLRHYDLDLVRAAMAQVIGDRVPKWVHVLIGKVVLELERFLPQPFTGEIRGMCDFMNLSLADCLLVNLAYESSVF
Chain of hNAAA (Q02083 126-359): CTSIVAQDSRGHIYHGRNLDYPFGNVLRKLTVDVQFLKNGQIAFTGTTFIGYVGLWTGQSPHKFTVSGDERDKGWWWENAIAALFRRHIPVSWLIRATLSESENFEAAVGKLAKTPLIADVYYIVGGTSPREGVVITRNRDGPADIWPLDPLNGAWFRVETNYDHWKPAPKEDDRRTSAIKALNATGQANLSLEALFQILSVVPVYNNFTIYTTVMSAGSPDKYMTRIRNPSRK

`S=C=NCCCCCCCCCCc1ccccn1` [Example 18, 2-(10-Isothiocyanatodecyl)pyridine] and `S=C=NCCCCCCCCCCc1ncccn1` [Example 20, 2-(10-Isothiocyanatodecyl)pyrimidine] fall in the same range of IC50: 0.01 to 0.1 µM for the first, 0.01 to 0.1 µM for the second.

`S=C=NCCCCCCCCCCc1ccncc1` [Example 19, 4-(10-Isothiocyanatodecyl)pyridine] and `S=C=NCCCCCCCCCCCc1ccccc1` [Example 21, (11-Isothiocyanatoundecyl)benzene] fall in the same range of IC50: 0.01 to 0.1 µM for the first, 0.01 to 0.1 µM for the second.

`S=C=NCCCCCCCCCc1ccccc1` [Example 22, (9-Isothiocyanatononyl)benzene] and `S=C=NCCCCCN1CCC(Cc2ccccc2)CC1` [Example 27, 4-Benzyl-1-(5-isothiocyanatopentyl)piperidine] fall in the same range of IC50: 0.01 to 0.1 µM for the first, 0.01 to 0.1 µM for the second.

`S=C=NCCOCCOCCOCc1ccccc1` [Example 23, ((2-(2-(2-Isothiocyanatoethoxy)ethoxy)ethoxy)methyl)benzene] and `S=C=NCCCOCc1ccc(Oc2ccccc2)cc1` [Example 26, 1((3-Isothiocyanatopropoxy)methyl)-4-phenoxybenzene] fall in the same range of IC50: 0.01 to 0.1 µM for the first, 0.01 to 0.1 µM for the second.

`S=C=NCCCOCc1cccc(-c2ccccc2)c1` [Example 24, 3-((3-Isothiocyanatopropoxy)methyl)-1,1′-biphenyl] and `S=C=NCCCOCc1ccc(-c2ccccc2)cc1` [Example 25, 4-((3-Isothiocyanatopropoxy)methyl)-1,1′-biphenyl] fall in the same range of IC50: 0.01 to 0.1 µM for the first, 0.01 to 0.1 µM for the second.

First: Cc1ccc(-c2ccc(CO[C@H]3C[C@H](N=C=S)C3)cc2)cc1 [Example 28, 4-(((1R,3R)-3-Isothiocyanatocyclobutoxy)methyl)-4′-methyl-1,1′-biphenyl]
Second: Cc1ccc(-c2ccc(CO[C@H]3C[C@@H](N=C=S)C3)cc2)cc1 [Example 29, 4-(((1S,3S)-3-Isothiocyanatocyclobutoxy)methyl)-4′-methyl-1,1′-biphenyl]
The IC50 of the first is higher: 0.11 to 1 µM for the first, 0.01 to 0.1 µM for the second.

Compared with `S=C=N[C@H]1C[C@@H](OCc2ccc(-c3ccccc3)cc2)C1` [Example 31, 4-(((1S,3S)-3-isothiocyanatocyclobutoxy)methyl)-1,1′-biphenyl], `COc1cccc(-c2ccc(CO[C@H]3C[C@@H](N=C=S)C3)cc2)c1` [Example 35, 4′-(((1S,3S)-3-isothiocyanatocyclobutoxy)methyl)-3-methoxy-1,1′-biphenyl] is lower in IC50: 0.11 to 1 µM for the first, 0.01 to 0.1 µM for the second. The second is the more potent here.

Compared with `Fc1ccc(-c2ccc(CO[C@H]3C[C@@H](N=C=S)C3)c(F)c2)cc1` [Example 32, 3,4′-Difluoro-4-(((1S,3S)-3-isothiocyanatocyclobutoxy)methyl)-1,1′-biphenyl], `COc1ccc(-c2ccc(CO[C@H]3C[C@@H](N=C=S)C3)c(F)c2)cc1F` [Example 33, 3,3′-Difluoro-4-(((1S,3S)-3-isothiocyanatocyclobutoxy)methyl)-4′-methoxy-1,1′-biphenyl] is lower in IC50: 0.11 to 1 µM for the first, 0.01 to 0.1 µM for the second.

First: CCOc1ccc(-c2ccc(CO[C@H]3C[C@@H](N=C=S)C3)c(F)c2)cc1F [Example 36, 4-Ethoxy-3,3′-difluoro-4′-(((1S,3S)-3-isothiocyanatocyclobutoxy)methyl)-1,1′-biphenyl]
Second: CC(C)Oc1ccc(-c2ccc(CO[C@H]3C[C@@H](N=C=S)C3)c(F)c2)cc1F [Example 37, 3,3′-Difluoro-4-isopropoxy-4′-(((1S,3S)-3-isothiocyanatocyclobutoxy)methyl)-1,1′-biphenyl]
The IC50 of the first is lower: 0.01 to 0.1 µM for the first, 0.11 to 1 µM for the second.

`Fc1cc(-c2ccc3c(c2)OCCO3)ccc1CO[C@H]1C[C@@H](N=C=S)C1` [Example 38, 6-(3-Fluoro-4-(((1S,3S)-3-isothiocyanatocyclobutoxy)methyl)phenyl)-2,3-dihydrobenzo[b][1,4]dioxine] and `Fc1cc(-c2ccc3c(c2)OCO3)ccc1CO[C@H]1C[C@@H](N=C=S)C1` [Example 39, 5-(3-Fluoro-4-(((1S,3S)-3-isothiocyanatocyclobutoxy)methyl)phenyl)benzo[d][1,3]dioxole] fall in the same range of IC50: 0.01 to 0.1 µM for the first, 0.01 to 0.1 µM for the second.

`COc1ccc(-c2ccc(CO[C@H]3C[C@@H](N=C=S)C3)c(F)c2)cc1OC` [Example 40, 3-Fluoro-4-(((1S,3S)-3-isothiocyanatocyclobutoxy)methyl)-3′,4′-dimethoxy-1,1′-biphenyl] and `COc1ccc(-c2ccc(O[C@H]3C[C@H](N=C=S)C3)cc2)cc1F` [Example 51, 3-Fluoro-4′-((1R,3R)-3-isothiocyanatocyclobutoxy)-4-methoxy-1,1′-biphenyl] fall in the same range of IC50: 0.01 to 0.1 µM for the first, 0.01 to 0.1 µM for the second.

Compared with `S=C=N[C@H]1C[C@@H](OCc2ccc(Oc3ccccc3)cc2Br)C1` [Example 49, 2-Bromo-1-(((1S,3S)-3-isothiocyanatocyclobutoxy)methyl)-4-phenoxybenzene], `COc1ccc(-c2ccc(O[C@H]3C[C@@H](N=C=S)C3)cc2)cc1F` [Example 52, 3-Fluoro-4′-((1S,3S)-3-isothiocyanatocyclobutoxy)-4-methoxy-1,1′-biphenyl] is lower in IC50: 0.11 to 1 µM for the first, 0.01 to 0.1 µM for the second. The second is the more potent here.

Same assay, conditions: read-out: NAAA Inhibition IC50 μM; purified hNAAA, PAMCA 5 μM, pH 4.5

`S=C=NCCCCc1ccccc1` [Example 1, (4-isothiocyanatobutyl)benzene] and `S=C=NCCCCCc1ccccc1` [Example 2, (5-Isothiocyanatopentyl)benzene] cannot be ordered by IC50: greater than 1 µM for the first, greater than 1 µM for the second.

`S=C=NCCCCCCCCc1ccccc1` [Example 3, (8-Isothiocyanatooctyl)benzene] and `S=C=NCCCCCCCc1ccc2ccccc2c1` [Example 5, 2-(7-Isothiocyanatoheptyl)naphthalene] cannot be ordered by IC50: greater than 1 µM for the first, greater than 1 µM for the second.

`CCCCCCCCCCCCCCCC(=O)NCCN=C=S` [Example 6, N-(2-isothiocyanatoethyl)palmitamide] and `O=C(CCCCCCc1ccc2ccccc2c1)NCCN=C=S` [Example 7, N-(2-Isothiocyanatoethyl)-7-(naphthalene-2-yl)heptanamide] cannot be ordered by IC50: greater than 1 µM for the first, greater than 1 µM for the second.

`S=C=Nc1ccc(Cc2ccncc2)cc1` [Example 8, 4-(4-Isothiocyanatobenzyl)pyridine] and `S=C=NCc1ccc(COc2ccccc2)cc1` [Example 15, 1-(Isothiocyanatomethyl)-4-(phenoxymethyl)benzene] cannot be ordered by IC50: greater than 1 µM for the first, greater than 1 µM for the second.

`S=C=NCCN1CCN(Cc2ccccc2)CC1` [Example 9, 1-Isothiocyanato-2-(4-benzylpiperazino)ethane] and `S=C=NCCN1CCC(Cc2ccccc2)CC1` [Example 11, 4-Benzyl-1-(2-isothiocyanatoethyl)piperidine] cannot be ordered by IC50: greater than 1 µM for the first, greater than 1 µM for the second.

`S=C=NCc1ccc(N2CCOCC2)cc1` [Example 10, 4-(4-(Isothiocyanatomethyl)phenyl)morpholine] and `S=C=NCc1ccc(CN2CCOCC2)cc1` [Example 12, 4-(Morpholinomethyl)benzylisothiocyanate] cannot be ordered by IC50: greater than 1 µM for the first, greater than 1 µM for the second.

`O=C(OCc1ccccc1)N1CCC(CN=C=S)CC1` [Example 13, Benzyl 4-(isothiocyanatomethyl)tetrahydro-1(2H)-pyridinecarboxylate] and `S=C=N[C@H]1C[C@H](OCc2ccc(-c3ccccc3)cc2)C1` [Example 30, 4-(((1R,3R)-3-isothiocyanatocyclobutoxy)methyl)-1,1′-biphenyl] cannot be ordered by IC50: greater than 1 µM for the first, greater than 1 µM for the second.

`Cc1cncc(Oc2ccc(CN=C=S)cc2)n1` [Example 14, 2-(4-(Isothiocyanatomethyl)phenoxy)-6-methylpyrazine] and `COc1ccc(CCCCCCCCCCN=C=S)cc1` [Example 17, 1-(10-Isothiocyanatodecyl)-4-methoxybenzene] cannot be ordered by IC50: greater than 1 µM for the first, greater than 1 µM for the second.

First: FC(F)(F)c1ccccc1CCCCCCCCCCN=C=S [Example 16, 1-(10-Isothiocyanatodecyl)-2-(trifluoromethyl)benzene]
Second: Fc1cc(-c2cccc(C(F)(F)F)c2)ccc1COC1CC(N=C=S)C1 [Example 47, 3-Fluoro-4-(((1R,3R)-3-isothiocyanatocyclobutoxy)methyl)-3′-(trifluoromethyl)-1,1′-biphenyl]
The IC50 of the first is higher: greater than 1 µM for the first, 0.01 to 0.1 µM for the second.

First: COc1cccc(-c2ccc(CO[C@H]3C[C@H](N=C=S)C3)cc2)c1 [Example 34, 4′-(((1R,3R)-3-isothiocyanatocyclobutoxy)methyl)-3-methoxy-1,1′-biphenyl]
Second: Fc1cc(-c2cccc(OCc3ccccc3)c2)ccc1COC1CC(N=C=S)C1 [Example 48, 3′-(Benzyloxy)-3-fluoro-4-(((1R,3R)-3-isothiocyanatocyclobutoxy)methyl)-1,1′-biphenyl]
The IC50 of the first is higher: greater than 1 µM for the first, 0.01 to 0.1 µM for the second. The second is the more potent here.

`COc1ncccc1-c1ccc(COC2CC(N=C=S)C2)c(F)c1` [Example 41, 3-(3-Fluoro-4-(((1R,3R)-3-isothiocyanatocyclobutoxy)methyl)phenyl)-2-methoxypyridine] and `Cn1cc(-c2ccc(COC3CC(N=C=S)C3)c(F)c2)cn1` [Example 46, 4-(3-Fluoro-4-(((1R,3R)-3-isothiocyanatocyclobutoxy)methyl)phenyl)-1-methyl-1H-pyrazole] fall in the same range of IC50: 0.11 to 1 µM for the first, 0.11 to 1 µM for the second.

Compared with `COc1ccc(-c2ccc(COC3CC(N=C=S)C3)nc2)cc1F` [Example 42, 5-(3-Fluoro-4-methoxyphenyl)-2-(((1R,3R)-3-isothiocyanatocyclobutoxy)methyl)pyridine], `COc1ccc(-c2ccc(F)c(CO[C@H]3C[C@@H](N=C=S)C3)c2)cc1F` [Example 43, 3,4′-Difluoro-3′-(((1S,3S)-3-isothiocyanatocyclobutoxy)methyl)-4-methoxy-1,1′-biphenyl] is higher in IC50: 0.01 to 0.1 µM for the first, greater than 1 µM for the second. The first is the more potent here.

First: Fc1cc(Br)ccc1COC1CC(N=C=S)C1 [Example 44, 4-Bromo-2-fluoro-1-(((1R,3R)-3-isothiocyanatocyclobutoxy)methyl)benzene]
Second: Cc1noc(C)c1-c1ccc(COC2CC(N=C=S)C2)c(F)c1 [Example 45, 4-(3-Fluoro-4-(((1R,3R)-3-isothiocyanatocyclobutoxy)methyl)phenyl)-3,5-dimethylisoxazole]
The IC50 of the first is lower: 0.11 to 1 µM for the first, greater than 1 µM for the second.

`S=C=N[C@H]1C[C@@H](OCc2ccc(Oc3ccccc3)cc2-c2ccccc2)C1` [Example 50, 2-(((1S,3S)-3-Isothiocyanatocyclobutoxy)methyl)-5-phenoxy-1,1′-biphenyl] and `CN(Cc1ccc(-c2ccccc2)cc1)C1CC(N=C=S)C1` [Example 53, (1R,3R)—N-([1,1′-Biphenyl]-4-ylmethyl)-3-isothiocyanato-N-methylcyclobutan-1-amine] cannot be ordered by IC50: greater than 1 µM for the first, greater than 1 µM for the second.
